Marks after values point to notes of the source that are not given here.
Experiments:
[1] = tested on: P. multocida 46572; experiment: In vivo mouse lung infection challenge model (murine); parameters: species or system CD-1 female mice; details: 46572, sc, 20 mg/kg, 240 h
Procedure: The challenge organism was P. multocida 46572. Target challenge concentration was 5×10^2 CFU/mouse. Isolated colonies from overnight growth (37° C. with 5% CO2) on trypticase soy agar (TSA II) blood plates were transferred to room temperature Brain Heart Infusion Broth (BHIB). The broth culture was incubated 3.5-4 hours to approximately mid-log phase of growth, as measured by forward light scatter at 600 nm (OD600, 0.200). The culture was centrifuged to collect the bacterial pellet. The pellet was re-suspended in BHIB and adjusted to provide an approximate concentration of 2.7 log^10 colony forming units (CFU) in 0.04 mL at the highest concentration. The challenge inoculum concentration was confirmed by serial dilutions of the inoculum for CFU enumeration. On Day −5, CD-1 female mice were received. Mice were given standard rodent diet and water ad libitum. On Day 0, bacterial inoculum (0.04 mL) was administered to each mouse (n=36) intranasally. Compounds of the invention were dosed at 20 mg/kg (0.1 mL) in a buffered (˜pH 5.4) propylene glycol, monothioglycerol and water solution by subcutaneous injection. Animals were observed from Days 1-10. The study was terminated on Day 10. In addition, some treatment groups were sampled at 6, 24, and 48 hours post bacterial challenge for RNA sequence analysis of lung tissue.
The murine efficacy model (P. multocida challenge) was optimized, and the treatment group size was powered to be able to observe statistically significant improvement of survival to expected ranges for immunomodulatory compounds. The experimental design was a randomized complete block design. Mice were individually identified and treatment groups comingled within a cage, with every treatment group equally represented across cages. Mortality was the primary variable. Mortality data was analyzed using a generalized mixed model with fixed effect of treatment and random effect of block. Survival time was also analyzed using the SAS PHREG (survival analysis) procedure to examine whether there were significant differences between treatment groups and the control group. Numerous compounds of the invention and M9 (positive control) were tested in this model at a dose of 20 mg/kg (Table 3). Typical percent survival for no treatment control is in the range of 0-20% based on study to study variation in challenge inoculum and rate of infection. […] Mouse survival for M9 was about 90-100%, further supporting its residual antibacterial properties against the bacterial strain. Harmonized survival accounts for % survival relative to vehicle (“−” control) and M9 (“+” control)) survival data (Table 3).

[2] = tested on: BRD pathogens, M. haemolytica and P. multocida; experiment: In-vitro MIC model, BRD pathogen screening panel; type: cell-based, Mannheimia haemolytica; Pasteurella multocida; details: for MIC for at least one BRD strain (asterisk on Ex#): Table F, Formula (1-A1a) compounds
[3] = tested on: TNF-α; experiment: Whole blood assay, LPS stimulation, MSD cytokine detection; type: cell-based; details: fresh whole bovine blood
[4] = tested on: IL-1β; experiment: as above; type: cell-based, bovine; details: fresh whole bovine blood, LPS stimulation; drug concentration giving overstimulation (OS) of IL-1β
[5] = tested on: IL-6; experiment: as above; type: cell-based; details: fresh whole bovine blood

Row | Structure (SMILES) | IC50 [3] | IC50 [5] | % Survival [1] | MIC flag at the example number (Table C) ([2]; at least one BRD strain) | IL-1ß OS of LPS [4] | MIC flag at the example number (Table E) ([2]; at least one BRD strain) | MIC for at least one BRD strain (asterisk on Ex#) [2] | MIC flag at the example number (Table G) ([2]; at least one BRD strain)
1 | CC[C@H]1OC(=O)[C@H](C)[C@@H](O)[C@H](C)[C@@H](O[C@@H]2O[C@H](C)C[C@H](N(C)C(=O)N(C)c3ccccc3)[C@H]2Oc2ccccc2)[C@](C)(O)C[C@@H](C)CN(C)[C@H](C)[C@@H](O)[C@]1(C)O [Example C-12, 1-((2S,3R,4S,6R)-2-(((2R,3S,4R,5R,8R,10R,11R,12S,13S,14R)-2-ethyl-3,4,10,13-tetrahydroxy-3,5,6,8,10,12,14-heptamethyl-15-oxo-1-oxa-6-azacyclopentadecan-11-yl)oxy)-6-methyl-3-phenoxytetrahydro-2H-pyran-4-yl)-1,3-dimethyl-3-phenylurea] | – | – | 12% | – | – | – | – | –
2 | CC[C@H]1OC(=O)[C@H](C)[C@@H](O)[C@H](C)[C@@H](O[C@@H]2O[C@H](C)C[C@H](N(C)C(=O)N(C)c3ccccc3)[C@H]2Oc2ccc(OC)cc2)[C@](C)(O)C[C@@H](C)CN(C)[C@H](C)[C@@H](O)[C@]1(C)O [Example C-13] | 44 µM | – | – | C-13* (MIC ≤ 64 μg/mL for at least one BRD strain) | 40 µM | – | – | –
3 | CC[C@H]1OC(=O)[C@H](C)[C@@H](O)[C@H](C)[C@@H](O[C@@H]2O[C@H](C)C[C@H](N(C)C(=O)N(C)c3cc(C)n(C)n3)[C@H]2Oc2ccccc2)[C@](C)(O)C[C@@H](C)CN[C@H](C)[C@@H](O)[C@]1(C)O [Example C-26, 1-(1,5-dimethyl-1H-pyrazol-3-yl)-3-((2S,3R,4S,6R)-2-(((2R,3S,4R,5R,8R,10R,11R,12S,13S,14R)-2-ethyl-3,4,10,13-tetrahydroxy-3,5,8,10,12,14-hexamethyl-15-oxo-1-oxa-6-azacyclopentadecan-11-yl)oxy)-6-methyl-3-phenoxytetrahydro-2H-pyran-4-yl)-1,3-dimethylurea] | – | – | 8% | – | – | – | – | –
4 | CCCNC[C@]1(O)[C@H](C)O[C@@H](O[C@H]2[C@H](C)[C@@H](O[C@@H]3O[C@H](C)C[C@H](NC)[C@H]3Oc3cccc(F)c3)[C@](C)(O)C[C@@H](C)CN[C@H](C)[C@@H](O)[C@](C)(O)[C@@H](CC)OC(=O)[C@@H]2C)C[C@@]1(C)OC [Example E-7] | 15 µM | 40 µM | – | – | 40 µM | E-7* (MIC ≤ 64 μg/mL for at least one BRD strain) | – | –
5 | CCCNC[C@]1(O)[C@H](C)O[C@@H](O[C@H]2[C@H](C)[C@@H](O[C@@H]3O[C@H](C)C[C@H](NC)[C@H]3Oc3cc(F)c(OC)c(F)c3)[C@](C)(O)C[C@@H](C)CN[C@H](C)[C@@H](O)[C@](C)(O)[C@@H](CC)OC(=O)[C@@H]2C)C[C@@]1(C)OC [Example E-9] | 18 µM | 30 µM | – | – | 40 µM | E-9* (MIC ≤ 64 μg/mL for at least one BRD strain) | – | –
6 | CCCNC[C@]1(O)[C@H](C)O[C@@H](O[C@H]2[C@H](C)[C@@H](O[C@@H]3O[C@H](C)C[C@H](NC)[C@H]3Oc3ccccc3C)[C@](C)(O)C[C@@H](C)CN[C@H](C)[C@@H](O)[C@](C)(O)[C@@H](CC)OC(=O)[C@@H]2C)C[C@@]1(C)OC [Example E-61] | 5 µM | 19 µM | – | – | 16 µM | E-61* (MIC ≤ 64 μg/mL for at least one BRD strain) | – | –
7 | CCCNC[C@]1(O)[C@H](C)O[C@@H](O[C@H]2[C@H](C)[C@@H](O[C@@H]3O[C@H](C)C[C@H](N(C)C)[C@H]3Oc3cccc(OC)c3)[C@](C)(O)C[C@@H](C)CN[C@H](C)[C@@H](O)[C@](C)(O)[C@@H](CC)OC(=O)[C@@H]2C)C[C@@]1(C)OC [Example E-73] | 5 µM | 18 µM | – | – | 16 µM | E-73* (MIC ≤ 64 μg/mL for at least one BRD strain) | – | –
8 | CCCNC[C@]1(O)[C@H](C)O[C@@H](O[C@H]2[C@H](C)[C@@H](O[C@@H]3O[C@H](C)C[C@H](N(C)C(=O)N(C)c4ccccc4)[C@H]3Oc3cccc(OCC)c3)[C@](C)(O)C[C@@H](C)CN[C@H](C)[C@@H](O)[C@](C)(O)[C@@H](CC)OC(=O)[C@@H]2C)C[C@@]1(C)OC [Example F-20] | – | – | – | – | – | – | F-20* (MIC ≤ 64 μg/mL for at least one BRD strain) | –
9 | CCCNC[C@]1(O)[C@H](C)O[C@@H](O[C@H]2[C@H](C)[C@@H](O[C@@H]3O[C@H](C)C[C@H](N(C)C(=O)N(C)c4ccccc4)[C@H]3Oc3ccc(C#N)cc3)[C@](C)(O)C[C@@H](C)CN[C@H](C)[C@@H](O)[C@](C)(O)[C@@H](CC)OC(=O)[C@@H]2C)C[C@@]1(C)OC [Example F-21] | – | – | – | – | – | – | F-21* (MIC ≤ 64 μg/mL for at least one BRD strain) | –
10 | CCCNC[C@]1(O)[C@H](C)O[C@@H](O[C@H]2[C@H](C)[C@@H](O[C@@H]3O[C@H](C)C[C@H](N(C)C(=O)N4CCOc5ccccc54)[C@H]3Oc3ccccc3)[C@](C)(O)C[C@@H](C)CN[C@H](C)[C@@H](O)[C@](C)(O)[C@@H](CC)OC(=O)[C@@H]2C)C[C@@]1(C)OC [Example G-2] | – | – | – | – | – | – | – | G-2* (MIC ≤ 64 μg/mL for at least one BRD strain)

The next lines start with results.

Row | IC50 [3] | IC50 [5] | Structure (SMILES) | % Survival [1] | MIC flag at the example number (Table C) ([2]; at least one BRD strain) | IL-1ß OS of LPS [4] | MIC flag at the example number (Table E) ([2]; at least one BRD strain) | MIC for at least one BRD strain (asterisk on Ex#) [2] | MIC flag at the example number (Table G) ([2]; at least one BRD strain)
11 | 25 µM | 40 µM | CCCNC[C@]1(O)[C@H](C)O[C@@H](O[C@H]2[C@H](C)[C@@H](O[C@@H]3O[C@H](C)C[C@H](NC)[C@H]3Oc3ccc(OC)c(OC(C)C)c3)[C@](C)(O)C[C@@H](C)CN[C@H](C)[C@@H](O)[C@](C)(O)[C@@H](CC)OC(=O)[C@@H]2C)C[C@@]1(C)OC [Example E-20] | – | – | 100 µM | E-20* (MIC ≤ 64 μg/mL for at least one BRD strain) | – | –
12 | 3 µM | 10 µM | CCCNC[C@]1(O)[C@H](C)O[C@@H](O[C@H]2[C@H](C)[C@@H](O[C@@H]3O[C@H](C)C[C@H](NC)[C@H]3Oc3ccc(F)c(F)c3)[C@](C)(O)C[C@@H](C)CN[C@H](C)[C@@H](O)[C@](C)(O)[C@@H](CC)OC(=O)[C@@H]2C)C[C@@]1(C)OC [Example E-36] | – | – | 16 µM | E-36* (MIC ≤ 64 μg/mL for at least one BRD strain) | – | –
13 | 11 µM | 120 µM | CCCNC[C@]1(O)[C@H](C)O[C@@H](O[C@H]2[C@H](C)[C@@H](O[C@@H]3O[C@H](C)C[C@H](NC)[C@H]3Oc3ccc4ccncc4c3)[C@](C)(O)C[C@@H](C)CN[C@H](C)[C@@H](O)[C@](C)(O)[C@@H](CC)OC(=O)[C@@H]2C)C[C@@]1(C)OC [Example E-56] | – | – | 100 µM | E-56* (MIC ≤ 64 μg/mL for at least one BRD strain) | – | –
14 | 5 µM | 8 µM | CC[C@H]1OC(=O)[C@H](C)[C@@H](O[C@H]2C[C@@](C)(OC)[C@](O)(CNc3ccccc3)[C@H](C)O2)[C@H](C)[C@@H](O[C@@H]2O[C@H](C)C[C@H](N(C)C)[C@H]2Oc2ccccc2)[C@](C)(O)C[C@@H](C)CN[C@H](C)[C@@H](O)[C@]1(C)O [Example E-67] | – | – | 6 µM | E-67* (MIC ≤ 64 μg/mL for at least one BRD strain) | – | –
15 | 22 µM | 66 µM | CCCNC[C@]1(O)[C@H](C)O[C@@H](O[C@H]2[C@H](C)[C@@H](O[C@@H]3O[C@H](C)C[C@H](NC)[C@H]3Oc3ccc(OC)nc3OC)[C@](C)(O)C[C@@H](C)CN[C@H](C)[C@@H](O)[C@](C)(O)[C@@H](CC)OC(=O)[C@@H]2C)C[C@@]1(C)OC [Example E-77] | – | – | 18 µM | E-77* (MIC ≤ 64 μg/mL for at least one BRD strain) | – | –
16 | 12 µM | 8 µM | CCCNC[C@]1(O)[C@H](C)O[C@@H](O[C@H]2[C@H](C)[C@@H](O[C@@H]3O[C@H](C)C[C@H](NC)[C@H]3Oc3cc(F)c(F)c(F)c3)[C@](C)(O)C[C@@H](C)CN[C@H](C)[C@@H](O)[C@](C)(O)[C@@H](CC)OC(=O)[C@@H]2C)C[C@@]1(C)OC [Example E-90] | – | – | 6 µM | E-90* (MIC ≤ 64 μg/mL for at least one BRD strain) | – | –

Reference: US12390441B2, “Immunomodulating o-het/aryl azalides” (Zoetis Services LLC, priority 2020, dated 2025)
